Measurements as given in patent US6111069A, “Polypeptides that include conformation-constraining groups which flank a protein-protein interaction site” (Virginia Commonwealth University, priority 1997, dated 2000).
Where a SMILES comes first, the peptide text is derived from it.

Legend:
[1] = Preliminary studies of hypotensive peptide versus diltiazem (diastolic pressure, arrhythmia); type: in vivo, rat
Protocol: 60 to 120 μg per rat (5 to 10 μM).

[2] = tested on: receptors of sweet tasting papillae; settings: comparison value; cited from earlier work

Row | Structure (SMILES) | Effect on diastolic pressure [1] | Sweetness relative to sugar [2]
1 | CSCC[C@H](NC(=O)[C@H](C)NC(=O)[C@@H](NC(=O)[C@@H]1CCCN1C(=O)[C@H](C)N)[C@@H](C)O)C(=O)N[C@@H](Cc1c[nH]c2ccccc12)C(=O)N1CCC[C@H]1C(=O)N[C@@H](C)C(=O)O [HP-1, Ala-Pro-Thr-Ala-Met-Trp-Pro-Ala] (H-APTAMWPA-OH) | does not increase diastolic pressure | 
2 | COC(=O)[C@H](Cc1ccccc1)NC(=O)[C@@H](N)CC(=O)O [aspartame] (H-Asp-Phe-OMe) |  | 160 times sweeter than sugar
